The source made the active and inactive calls. The calls are words filed in the database; no cut-off is given here.
Tests used:
MCF7 = assay: Antiproliferative activity against human MCF7 cells assessed as inhibition of cell growth incubated for 96 hrs by MTT based ELISA; assay type: functional; settings: MCF7, 96 h
MDA-MB-231 = assay: Antiproliferative activity against human MDA-MB-231 cells assessed as inhibition of cell growth incubated for 96 hrs by MTT based ELISA; assay type: functional; settings: MDA-MB-231, 96 h
PC-3 = assay: Antiproliferative activity against human PC-3 cells assessed as inhibition of cell growth incubated for 96 hrs by MTT based ELISA; assay type: functional; settings: PC-3, 96 h
HCT-116 = assay: Antiproliferative activity against human HCT-116 cells assessed as inhibition of cell growth incubated for 96 hrs by MTT based ELISA; assay type: functional; settings: HCT-116, 96 h
NCI-H2228 = assay: Antiproliferative activity against human NCI-H2228 cells assessed as inhibition of cell growth incubated for 96 hrs by MTT based ELISA; assay type: functional; settings: NCI-H2228, 96 h
Huh-7 = assay: Antiproliferative activity against human Huh-7 cells assessed as inhibition of cell growth incubated for 96 hrs by MTT based ELISA; assay type: functional; settings: Huh-7, 96 h
[1] = target: T1, DNA topoisomerase 1 (Homo sapiens) (UniProt P11387); assay: Inhibition of Topoisomerase I (unknown origin) using pBR322 DNA as substrate at 200 uM incubated for 15 mins by EtBr staining based agarose gel electrophoresis method relative to control
T1 sequence (whole entry): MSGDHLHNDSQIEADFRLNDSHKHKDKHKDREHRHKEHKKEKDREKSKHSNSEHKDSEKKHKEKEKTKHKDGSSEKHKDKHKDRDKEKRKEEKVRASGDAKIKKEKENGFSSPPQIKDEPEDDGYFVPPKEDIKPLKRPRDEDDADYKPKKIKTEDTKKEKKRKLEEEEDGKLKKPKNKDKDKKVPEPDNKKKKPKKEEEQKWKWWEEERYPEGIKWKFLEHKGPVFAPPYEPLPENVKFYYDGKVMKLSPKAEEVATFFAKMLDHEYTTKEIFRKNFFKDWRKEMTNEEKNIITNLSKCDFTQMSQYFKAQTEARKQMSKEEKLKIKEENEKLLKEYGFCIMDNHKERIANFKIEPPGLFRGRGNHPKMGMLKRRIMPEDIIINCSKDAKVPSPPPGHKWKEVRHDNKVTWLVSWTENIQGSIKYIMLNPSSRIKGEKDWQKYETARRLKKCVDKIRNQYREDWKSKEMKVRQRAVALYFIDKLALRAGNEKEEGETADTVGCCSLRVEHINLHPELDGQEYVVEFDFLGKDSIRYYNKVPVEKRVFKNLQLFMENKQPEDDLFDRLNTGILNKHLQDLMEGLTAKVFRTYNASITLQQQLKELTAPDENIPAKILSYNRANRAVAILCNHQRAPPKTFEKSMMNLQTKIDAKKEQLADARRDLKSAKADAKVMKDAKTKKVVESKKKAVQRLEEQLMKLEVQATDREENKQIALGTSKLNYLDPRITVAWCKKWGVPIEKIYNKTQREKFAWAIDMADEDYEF

[2] = target: DNA topoisomerase 2-alpha (Homo sapiens) (UniProt P11388); assay: Inhibition of Topoisomerase 2 (unknown origin) using pBR322 DNA as substrate at 100 uM incubated for 15 mins by EtBr staining based agarose gel electrophoresis method relative to control
Sequence of DNA topoisomerase 2-alpha (Homo sapiens) (P11388 whole entry): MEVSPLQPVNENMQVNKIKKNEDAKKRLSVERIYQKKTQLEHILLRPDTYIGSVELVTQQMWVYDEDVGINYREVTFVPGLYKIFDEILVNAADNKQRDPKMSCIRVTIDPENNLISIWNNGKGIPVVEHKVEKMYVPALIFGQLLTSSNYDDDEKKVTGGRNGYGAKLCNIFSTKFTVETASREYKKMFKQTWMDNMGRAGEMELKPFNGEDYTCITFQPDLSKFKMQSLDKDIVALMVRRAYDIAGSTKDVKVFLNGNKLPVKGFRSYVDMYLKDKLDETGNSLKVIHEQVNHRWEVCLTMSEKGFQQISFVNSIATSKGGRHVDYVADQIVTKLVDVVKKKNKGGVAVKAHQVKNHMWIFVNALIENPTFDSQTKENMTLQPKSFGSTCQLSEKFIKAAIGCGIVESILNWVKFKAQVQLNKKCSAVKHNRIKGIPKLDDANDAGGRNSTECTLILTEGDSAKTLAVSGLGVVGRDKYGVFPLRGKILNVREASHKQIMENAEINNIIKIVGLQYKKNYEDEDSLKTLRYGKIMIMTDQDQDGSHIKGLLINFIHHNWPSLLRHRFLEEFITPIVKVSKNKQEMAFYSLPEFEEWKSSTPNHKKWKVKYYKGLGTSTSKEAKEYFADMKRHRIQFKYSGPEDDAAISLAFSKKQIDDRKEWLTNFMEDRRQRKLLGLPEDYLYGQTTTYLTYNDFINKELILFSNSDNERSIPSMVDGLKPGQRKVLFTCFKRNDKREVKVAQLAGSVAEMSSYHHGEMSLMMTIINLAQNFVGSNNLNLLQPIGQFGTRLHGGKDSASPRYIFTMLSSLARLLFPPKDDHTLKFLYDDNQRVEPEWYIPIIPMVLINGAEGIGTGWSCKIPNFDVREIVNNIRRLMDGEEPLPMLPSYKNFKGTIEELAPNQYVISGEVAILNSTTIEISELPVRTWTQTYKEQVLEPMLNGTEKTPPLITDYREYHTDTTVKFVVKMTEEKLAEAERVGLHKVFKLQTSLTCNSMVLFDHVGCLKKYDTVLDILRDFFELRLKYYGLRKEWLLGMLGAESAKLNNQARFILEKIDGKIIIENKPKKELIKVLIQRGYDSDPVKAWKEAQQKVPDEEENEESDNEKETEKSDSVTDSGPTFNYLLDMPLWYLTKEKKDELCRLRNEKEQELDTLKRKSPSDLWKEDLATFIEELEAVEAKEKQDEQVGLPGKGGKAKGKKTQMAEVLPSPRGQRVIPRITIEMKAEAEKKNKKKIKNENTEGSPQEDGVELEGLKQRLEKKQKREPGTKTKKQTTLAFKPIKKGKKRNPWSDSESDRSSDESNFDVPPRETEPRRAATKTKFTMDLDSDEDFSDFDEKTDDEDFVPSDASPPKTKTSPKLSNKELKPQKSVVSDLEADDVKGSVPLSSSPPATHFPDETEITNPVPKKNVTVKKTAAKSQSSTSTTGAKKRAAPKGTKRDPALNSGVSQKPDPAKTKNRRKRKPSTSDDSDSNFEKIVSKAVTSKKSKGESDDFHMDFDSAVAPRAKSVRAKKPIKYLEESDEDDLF

[3] = target: T1, DNA topoisomerase 1 (Homo sapiens); assay: Inhibition of Topoisomerase I (unknown origin) using pBR322 DNA as substrate at 50 uM incubated for 15 mins by EtBr staining based agarose gel electrophoresis method
[4] = target: DNA topoisomerase 2-alpha (Homo sapiens) (UniProt P11388); assay: Inhibition of Topoisomerase 2 (unknown origin) using pBR322 DNA as substrate at 50 uM incubated for 15 mins by EtBr staining based agarose gel electrophoresis method

| Compound | IC50 (MCF7) [µM] | IC50 (MDA-MB-231) [nM] | IC50 (PC-3) [µM] | IC50 (HCT-116) [nM] | IC50 (NCI-H2228) [µM] | IC50 (Huh-7) [µM] | inhibition [1] | inhibition [2] | inhibition [3] | inhibition [4] |
| --- | --- | --- | --- | --- | --- | --- | --- | --- | --- | --- |
| COc1ccc2c(c1)c1nc(Cl)c3ccccc3c1n2CCCN1C(=O)CC(C)(C)CC1=O | > 10 | > 10000 | > 10 | > 10000 | > 10 | > 10 |  |  |  |  |
| CN(C)CCCn1c2ccccc2c2[nH]c(=O)c3ccccc3c21 | 6.84 | 5900 | 4.38 | 4050 | 7.03 | > 10 |  |  |  |  |
| COc1ccc2c3nc(Cl)c4ccccc4c3n(CCCC(=O)NO)c2c1 | 4.6 | 3060 | 3.7 | 2700 | 4.55 | > 10 |  |  |  |  |
| CCOc1ccc2c(c1)c1nc(Cl)c3ccccc3c1n2CCCC(=O)NO | 3.73 | 1920 | 2.58 | 1800 | 4.66 | 3.92 |  |  |  |  |
| COc1ccc2c3nc(Cl)c4ccccc4c3n(CCCN(C)C)c2c1 | 1.83 | 1360 | 1.65 | 960 | 1.5 | 2.49 |  |  |  |  |
| COc1ccc2c(c1)c1nc(Cl)c3ccccc3c1n2CCCNc1ccn([C@H]2C[C@H](O)[C@@H](CO)O2)c(=O)n1 | > 10 | > 10000 | > 10 | > 10000 | > 10 | > 10 |  |  |  |  |
| CN(C)CCCn1c2ccccc2c2nc(Cl)c3ccccc3c21 | 2.75 | 1950 | 2.67 | 1330 | 1.51 | 2.99 |  |  |  |  |
| COc1ccc2c(c1)c1nc(Cl)c3ccccc3c1n2CCCn1cc(C)nc1C | > 10 | > 10000 | > 10 | > 10000 | > 10 | > 10 |  |  |  |  |
| COc1ccc2c(c1)c1ncc3ccccc3c1n2CCCN1CCN(C)CC1 | 1.12 | 1680 | 0.74 | 1170 | 1.84 | 2.24 | inactive | inactive | inactive | inactive |
| COc1ccc2c(c1)c1nc(Cl)c3ccccc3c1n2CCCN(C)C | 1.64 | 1200 | 1.22 | 820 | 1.28 | 1.77 |  |  |  |  |
| O=C(CCCn1c2ccc(OC(F)F)cc2c2ncc3ccccc3c21)NO | 5.71 | 2380 | 4.3 | 4070 | 3.74 | 3.37 |  |  |  |  |
| O=C(CCCn1c2cc3c(cc2c2[nH]c(=O)c4ccccc4c21)OCO3)NO | 6.57 | 4880 | 7.14 | 4080 | > 10 | > 10 | > 95% | > 95% | Active | Active |
| COc1ccc2c(c1)c1ncc3ccccc3c1n2CCCN(C)C | 1.45 | 1090 | 1.01 | 620 | 1.05 | 1.5 |  |  |  |  |
| COc1ccc2c(c1)c1ncc3ccccc3c1n2CCCN1CCN(C(C)C)CC1 | 1.45 | 2040 | 1.07 | 1380 | 2.04 | 2.18 | inactive | inactive | inactive | inactive |
| CCOc1ccc2c(c1)c1ncc3ccccc3c1n2CCCC(=O)NO | 0.97 | 800 | 1.55 | 1380 | 3.06 | 3.41 |  |  |  |  |
| COc1ccc2c(c1)c1nc(Cl)c3ccccc3c1n2CCCn1c(=O)c(F)cn([C@@H]2O[C@H](CO)[C@@H](O)[C@H]2O)c1=O | > 10 | > 10000 | > 10 | > 10000 | > 10 | > 10 |  |  |  |  |
| COc1ccc2c(c1)c1nc(Cl)c3ccccc3c1n2CCCN1CCC(CO)CC1 | > 10 | > 10000 | > 10 | > 10000 | > 10 | > 10 |  |  |  |  |

| Compound | IC50 (MCF7) [µM] | IC50 (MDA-MB-231) [nM] | IC50 (PC-3) [µM] | IC50 (HCT-116) [nM] | IC50 (NCI-H2228) [µM] | IC50 (Huh-7) [µM] | inhibition [1] | inhibition [2] | inhibition [3] | inhibition [4] |
| --- | --- | --- | --- | --- | --- | --- | --- | --- | --- | --- |
| COc1ccc2c(c1)c1nc(Cl)c3ccccc3c1n2CCCN1CC[C@@H](O)C1 | > 10 | > 10000 | > 10 | > 10000 | > 10 | > 10 |  |  |  |  |
| CC(C)Oc1ccc2c(c1)c1[nH]c(=O)c3ccccc3c1n2CCCN(C)C | > 10 | 5600 | 4.91 | 2260 | 2.56 | 6.74 |  |  |  |  |
| COc1ccc2c(c1)c1[nH]c(=O)c3ccccc3c1n2CCCN(C)C | 1.41 | 1920 | 1.32 | 550 | 2.03 | 2.55 |  |  |  |  |
| COc1ccc2c(c1)c1nc(Cl)c3ccccc3c1n2CCCN1CCN(C)CC1 | 1.36 | 2240 | 0.82 | 1650 | 2.41 | 3.31 |  |  |  |  |
| COc1ccc2c(c1)c1nc(Cl)c3ccccc3c1n2CCCN1CCN(C(C)C)CC1 | 1.76 | 2520 | 1.12 | 1790 | 2.36 | 2.26 |  |  |  |  |
| COc1ccc2c(c1)c1nc(Cl)c3ccccc3c1n2CCCNc1ccn([C@@H]2O[C@H](CO)[C@@H](O)[C@@H]2O)c(=O)n1 | > 10 | > 10000 | > 10 | > 10000 | > 10 | > 10 |  |  |  |  |
| COc1ccc2c(c1)c1nc(Cl)c3ccccc3c1n2CCCn1cnc(C)c1 | > 10 | > 10000 | > 10 | > 10000 | > 10 | > 10 |  |  |  |  |
| COc1ccc2c(c1)c1nc(Cl)c3ccccc3c1n2CCCN1CCOCC1 | > 10 | > 10000 | > 10 | > 10000 | > 10 | > 10 |  |  |  |  |
| COc1ccc2c(c1)c1nc(Cl)c3ccccc3c1n2CCCN1CCCC(O)C1 (stereo unspecified) | 3.61 | 5040 | 3.26 | 3680 | 3.1 | 4.57 |  |  |  |  |
| CC(C)Oc1ccc2c(c1)c1ncc3ccccc3c1n2CCCC(=O)NO | 4.56 | 1780 | 2.57 | 2140 | 4.86 | 4.43 |  |  |  |  |
| COc1ccc2c(c1)c1nc(Cl)c3ccccc3c1n2CCCN1CCC[C@@H](O)C1 | > 10 | > 10000 | > 10 | > 10000 | > 10 | > 10 |  |  |  |  |
| COc1ccc2c(c1)c1nc(Cl)c3ccccc3c1n2CCCN1CCC[C@@H]1CO | > 10 | > 10000 | > 10 | > 10000 | > 10 | > 10 |  |  |  |  |
| COc1ccc2c(c1)c1nc(Cl)c3ccccc3c1n2CCCn1c(=O)[nH]cc(F)c1=O | > 10 | > 10000 | > 10 | > 10000 | > 10 | > 10 |  |  |  |  |
| COc1ccc2c(c1)c1nc(Cl)c3ccccc3c1n2CCCN1CCC(N(C)C)CC1 | 2.96 | 4100 | 2.7 | 2550 | 2.73 | 4.36 |  |  |  |  |
| O=C(CCCn1c2ccc(OC(F)F)cc2c2nc(Cl)c3ccccc3c21)NO | 4.35 | 3690 | 4.11 | 2500 | 5.31 | 4.13 |  |  |  |  |
| COc1ccc2c(c1)c1nc(Cl)c3ccccc3c1n2CCCNc1nc(=O)n([C@@H]2O[C@H](CO)[C@@H](O)[C@H]2O)cc1F | > 10 | > 10000 | > 10 | > 10000 | > 10 | > 10 |  |  |  |  |
| O=C(CCCn1c2ccccc2c2nc(Cl)c3ccccc3c21)NO | 3.87 | 2980 | 3.14 | 2870 | 4.28 | 5.76 |  |  |  |  |
